Assay results as given in patent US20250213744A1, “ANTIMICROBIAL HYDROGEL COMPOSITION” (priority 2022, published 2025).
Values joined by “and” are separate entries in the source; they are usually repeats but may differ in a detail not shown here. Equal entries are not always repeated. “Also recorded” adds a separate entry of the source.

What was measured:
E. faecalis (JH2-2) = assay: Modified Kirby-Bauer test, zone of inhibition; assay type: cell-based, Enterococcus faecalis; conditions: for Ratio of bacterial zone of inhibition following application of plasma jet to antimicrobial loaded gel over non-plasma activated gel: antimicrobial loaded PAA/PVA composite gel
From the text: (§1) The Ar-CAP jet shown in FIG. 14 consisted of an internal steel needle electrode (outer diameter=0.9 mm, inner diameter=0.6 mm, length 51 mm) sealed inside a quartz tube (inner diameter=1.5 mm, outer diameter=3 mm). Two external copper electrodes of length 4 mm 5.6 cm from electrode, spaced 5.4 cm apart and 6.6 cm from the bottom of the tube. Ar gas was kept at 1.0 standard litres per minute (SLPM) and generated at 10 kV at 23.5 kHz. Voltage and current waveforms were monitored using oscilloscope. The gap distance was 1.5 cm and the Ar-CAP jet was stationary unless otherwise stated. 31
(§2) Bacterial overnight was made as outlined, subcultures were made in fresh MH broth absorbance corrected to OD 0.5 (˜[…] CFU/mL). 100 μL was added to Muller-Hinton agar to and spread to create a bacterial lawn. Gel discs were placed in the centre of the plate and either treated with Ar-CAP or left untreated. Plates were incubated at 37° C. for 18 h, facing up to prevent the gel from moving. Zone of inhibition (ZOI) was measured and corrected to the diameter of the gel.
(§3) The Kirby-Bauer (KB) test is a standard test used to assess the susceptibility of bacteria to different antimicrobials by measuring the zone of bacterial growth inhibition (ZOI) due to the out diffusion of the antimicrobial agent from a sterile disc soaked in that compound. In this case, a modified form of the KB test was performed. Plasma activate antimicrobial loaded, composite hydrogels were compared to non-activated antimicrobial loaded, composite hydrogels and non-loaded, composite hydrogels with and without plasma activation.

S. aureus (H560) = assay: Modified Kirby-Bauer test, zone of inhibition; assay type: cell-based, Staphylococcus aureus; conditions: for Ratio of bacterial zone of inhibition following application of plasma jet to antimicrobial loaded gel over non-plasma activated gel: antimicrobial loaded PAA/PVA composite gel
From the text: as §1, §2, §3

[1] = Ninhydrin assay, gentamicin release from PAA/PVA composite hydrogel with and without Ar-CAP jet; assay type: physicochemical
Procedure: 0.1 g of the drug loaded PAA powder was mixed with dry PVA (5% (w/v)) to obtain a homogenous powder and then is dissolved at 95° C. for 1 h. 20 ml of the PAANaPA/PVA solution was then added to a […] diameter petri dish and spread evenly. The gels were placed into a −20° C. freezer until frozen and removed and defrosted at 25° C. this process was repeated twice more to enable cryo-crosslinking of the PVA.
The Ar-CAP jet shown in FIG. 14 consisted of an internal steel needle electrode (outer diameter=0.9 mm, inner diameter=0.6 mm, length 51 mm) sealed inside a quartz tube (inner diameter=1.5 mm, outer diameter=3 mm). […] Voltage and current waveforms were monitored using oscilloscope. […]
Aminoglycoside was made up in pH 7.4 assay buffer (39.1 mL 0.2 M sodium hydroxide solution was added to 50 mL 0.2 M monobasic potassium phosphate solution and made up to a final volume of 200 mL with DI H2O) to starting concentration of 1 mg/mL. […] 200 μL was aliquoted into a round bottom 96-well plate and the absorbance was read at 560 nm (Clariostar, Omega). […]
Gentamicin is an aminoglycoside antibiotic used both systemically and topically. […] Ninhydrin was used to quantify release of gentamicin both prior to CAP treatment (passive release) and following CAP treatment. […] The Ninhydrin assay was used to quantify release of gentamicin with (triggered release) and without CAP treatment (passive release).

[2] = two secondary amine groups; net positive charge at pH 7; cited from earlier work
[3] = Passive leaching of antimicrobial from PAA composite gel, judged qualitatively from ZOI data; conditions: without CAP; judged from ZOI and ZOI ratios
From the text: The variation in bacterial susceptibility to the plasma jet applied to the unloaded gel is interesting and is thought to related to the varying susceptibility of different species to the RONS generated by the CAP. Sensitivity to different antimicrobials varied as a function of both the antimicrobial moiety and the bacterial species. In this case, P. aeruginosa is seen to be sensitive to Ag^+ passively leaching from the composite gel, while S. aureus and E. faecalis are not.
Relative passive leaching of different antimicrobials can be qualitatively assessed by looking at FIG. 5-7. The difficulty in cross comparison of the different antimicrobial susceptibility of the bacterial species to the various antimicrobials tested. The key comparison here is to look at the ratio of ZOI of the antimicrobial loaded composite gel (1st column in graphs below) to the zone of inhibition for the same loaded gel following application of the CAP jet 2nd column).

[4] = tested on: clinical strains of S. aureus; conditions: many clinical strains of S. aureus; cited from earlier work
[5] = tested on: clinical strains of P. aeruginosa; conditions: many clinical strains of P. aeruginosa; cited from earlier work
P. aeruginosa (PAO1) = assay: Modified Kirby-Bauer test, zone of inhibition; assay type: cell-based, Pseudomonas aeruginosa; conditions: for Ratio of bacterial zone of inhibition following application of plasma jet to antimicrobial loaded gel over non-plasma activated gel: antimicrobial loaded PAA/PVA composite gel
From the text: as §1, §2, §3

Molecule: gentamicin
- Ratio of bacterial zone of inhibition following application of plasma jet to antimicrobial loaded gel over non-plasma activated gel (E. faecalis (JH2-2); E. faecalis): >10
- Ratio of bacterial zone of inhibition following application of plasma jet to antimicrobial loaded gel over non-plasma activated gel (S. aureus (H560)): 8.2
- gentamicin released from gel into the surrounding PBS (triggered release) ([1]; after two minutes treatment with Ar CAP jet): 61 mg/mL
- gentamicin passively released from gel ([1]; without CAP treatment): 1.1 mg/mL
- pka of secondary amine groups [2]: 8.8 and 9.9
- passive release / leaching from the PAA composite gel (qualitative) [3]: little passive leaching
- Minimal Inhibitory Concentration (MIC) [4]: 2000 to 4000 µg/mL
- Minimal Inhibitory Concentration (MIC) [5]: 2000 to 4000 µg/mL
- Ratio of bacterial zone of inhibition following application of plasma jet to antimicrobial loaded gel over non-plasma activated gel (P. aeruginosa (PAO1)): 3.6

Molecule: Polymyxin B
- Ratio of bacterial zone of inhibition following application of plasma jet to antimicrobial loaded gel over non-plasma activated gel (E. faecalis (JH2-2); E. faecalis): >30
- Ratio of bacterial zone of inhibition following application of plasma jet to antimicrobial loaded gel over non-plasma activated gel (S. aureus (H560)): 34
- passive release / leaching from the PAA composite gel (qualitative) [3]: relatively no passive release; also recorded: little passive leaching
- Ratio of bacterial zone of inhibition following application of plasma jet to antimicrobial loaded gel over non-plasma activated gel (P. aeruginosa (PAO1)): 13

Molecule: O=[N+]([O-])[O-].[Ag+] [Silver, Silver Nitrate]
- sensitivity to antimicrobial passively leaching from the composite gel (E. faecalis (JH2-2); E. faecalis, no CAP): are not
- Ratio of bacterial zone of inhibition following application of plasma jet to antimicrobial loaded gel over non-plasma activated gel (E. faecalis (JH2-2); E. faecalis): 6
- Ratio of bacterial zone of inhibition following application of plasma jet to antimicrobial loaded gel over non-plasma activated gel (S. aureus (H560)): 7
- sensitivity to antimicrobial passively leaching from the composite gel (S. aureus (H560); no CAP): are not
- passive release / leaching from the PAA composite gel (qualitative) [3]: much greater degree of passive out-diffusion
- Ratio of bacterial zone of inhibition following application of plasma jet to antimicrobial loaded gel over non-plasma activated gel (P. aeruginosa (PAO1)): 1.5
- sensitivity to antimicrobial passively leaching from the composite gel (P. aeruginosa (PAO1); no CAP): sensitive

Molecule: Cetrimide
- Ratio of bacterial zone of inhibition following application of plasma jet to antimicrobial loaded gel over non-plasma activated gel (E. faecalis (JH2-2); E. faecalis): 1.3
- sensitivity of E. faecalis compared with P. aeruginosa and S. aureus (E. faecalis (JH2-2); loaded composite gel): less sensitive
- Ratio of bacterial zone of inhibition following application of plasma jet to antimicrobial loaded gel over non-plasma activated gel (S. aureus (H560)): 1.8
- passive release / leaching from the PAA composite gel (qualitative) [3]: much greater degree of passive out-diffusion
- Ratio of bacterial zone of inhibition following application of plasma jet to antimicrobial loaded gel over non-plasma activated gel (P. aeruginosa (PAO1)): 2.7
